Results published in patent US10611740B2, “Aryl dihydro-2H-benzo[b][1,4]oxazine sulfonamide and related compounds for use as agonists of RORγ and the treatment of disease” (Lycera Corporation, priority 2015, dated 2020).

Tests used:
Gal4-RORγ-LBD = target: T1, Gal4-RORγ-LBD (Homo sapiens, UniProt P51449); assay: Gal4-RORγ Luciferase Reporter Assay in HEK-293T Cells; assay type: cell-based; settings: HEK-293 cells
T1 construct: expressed in transfected cells; host or cells: HEK-293 cells (pcDNA3.1neo plasmid)
T1 sequence (P51449 269-508 limits assumed): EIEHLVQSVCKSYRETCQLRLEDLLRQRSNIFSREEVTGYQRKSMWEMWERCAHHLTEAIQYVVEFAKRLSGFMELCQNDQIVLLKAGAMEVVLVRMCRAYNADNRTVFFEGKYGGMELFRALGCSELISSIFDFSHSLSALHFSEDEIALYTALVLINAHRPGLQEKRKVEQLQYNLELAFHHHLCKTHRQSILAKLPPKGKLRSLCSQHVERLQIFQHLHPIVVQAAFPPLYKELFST
Summary of the method: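 Luminescence read-out (One-Glo, 10 min RT) after overnight compound exposure at 37 °C in HEK-293 cells carrying Gal4-RORγ-LBD plus a Gal4-luciferase reporter, in the presence of 2 μM ursolic acid. Max Response is the upper plateau from a 4-parameter logistic fit, normalized to untreated signal = 100.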

RORγ-LBD = target: T2, RORγ-LBD (Homo sapiens, UniProt P51449); assay: RORγ-Ligand Binding Domain (LBD) TR-FRET Assay; assay type: biochemical;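 as to TR-FRET Assay Max Response: 665/615 nm ratio relative to signal without ursolic acid or compound set at 100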
T2 construct: made in house; host or cells: SF9 cells (baculovirus)
T2 sequence (P51449 269-508 limits assumed): T1 sequence (P51449 269-508 limits assumed)
Summary of the method: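 This TR-FRET coactivator assay pairs baculovirus-expressed His-RORγ-LBD (~3 nM final) with biotin-SRC1 LXXLL peptide at 200 nM final in pH 7.0 Tris/KCl/EDTA/DTT/BSA buffer.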

[1] = luciferase reporter, with 2 μM ursolic acid

Compound	EC50 (Gal4-RORγ-LBD; [1]) [nM]	EC50 (RORγ-LBD) [nM]	EC50 (Gal4-RORγ-LBD; 2 μM ursolic acid) [nM]	TR-FRET Assay Max Response (RORγ-LBD)	Gal4-RORγ Assay Max Response (Gal4-RORγ-LBD; [1])	Gal4-RORγ Assay Max Response (Gal4-RORγ-LBD; 2 μM ursolic acid)
Cn1ccnc1-c1ccc2c(c1)N(S(=O)(=O)c1cccc(C(F)(F)F)c1)C[C@H](CCC(=O)O)O2 [Compound 4L, (S)-3-(6-(1-methyl-1H-imidazol-2-yl)-4-((3-(trifluoromethyl)-phenyl)sulfonyl)-3,4-dihydro-2H-benzo[b][1,4]oxazin-2-yl)propanoic acid]	> 10000	> 10000		**** (The symbol “****” indicates a value greater than 200)		
CS(=O)(=O)NC(=O)CC[C@H]1CN(S(=O)(=O)c2cccc(C(F)(F)F)c2)c2cc(-c3cc(F)ccc3F)ccc2O1 [Compound 42, (S)-3-(6-(2,5-difluorophenyl)-4-((3-(trifluoromethyl)phenyl)sulfonyl)-3,4-dihydro-2H-benzo[b][1,4]oxazin-2-yl)-N-(methylsulfonyl)propanamide]	< 500	< 500		**** (The symbol “****” indicates a value greater than 200)	** (The symbol “**” indicates a value in the range of greater than 90 to 150)	
C[C@](O)(C(=O)NC[C@H]1CN(S(=O)(=O)c2cccc(C(F)(F)F)c2)c2cc(-c3cc(F)ccc3F)ccc2O1)C(F)(F)F [Compound 30W, (S)-N-(((S)-6-(2,5-difluoro-phenyl)-4-((3-(trifluoromethyl)-phenyl)sulfonyl)-3,4-dihydro-2H-benzo[b][1,4]oxazin-2-yl)methyl)-3,3,3-trifluoro-2-hydroxy-2-methylpropanamide]	< 500	< 500		**** (The symbol “****” indicates a value greater than 200)	** (The symbol “**” indicates a value in the range of greater than 90 to 150)	
Cc1c(C(F)(F)F)cccc1S(=O)(=O)N1C[C@H](CCC(=O)O)Oc2ccc(-c3cc(F)ccc3F)cc21 [Compound 6I, (S)-3-(6-(2,5-difluorophenyl)-4-((2-methyl-3-(trifluoromethyl)phenyl)-sulfonyl)-3,4-dihydro-2H-benzo[b][1,4]oxazin-2-yl)propanoic acid]	500 to 5000	< 500		*** (The symbol “***” indicates a value in the range of greater than 150 to 200)	** (The symbol “**” indicates a value in the range of greater than 90 to 150)	
CC(C)(C[C@H]1CN(S(=O)(=O)c2cccc(C(F)(F)F)c2)c2cc(-c3cccc4c3OC(F)(F)O4)ccc2O1)C(=O)O [Compound 32AC, (S)-3-(6-(2,2-difluorobenzo[d]-[1,3]dioxol-4-yl)-4-((3-(trifluoro-methyl)phenyl)sulfonyl)-3,4-dihydro-2H-benzo[b][1,4]oxazin-2-yl)-2,2-dimethylpropanoic acid]		< 500	< 500	*** (The symbol “***” indicates a value in the range of greater than 150 to 200)		** (The symbol “**” indicates a value in the range of greater than 90 to 150)
O=C(NC[C@H]1CN(S(=O)(=O)c2cccc(C(F)(F)F)c2)c2cc(-c3cc(F)ccc3F)ccc2O1)C1CCC1 [Compound 30BB, (S)-N-((6-(2,5-difluorophenyl)-4-((3-(trifluoromethyl)phenyl)-sulfonyl)-3,4-dihydro-2H-benzo-[b][1,4]oxazin-2-yl)methyl)-cyclobutanecarboxamide]	< 500	< 500		*** (The symbol “***” indicates a value in the range of greater than 150 to 200)	* (The symbol “*” indicates a value in the range of 25 to 90)	
COc1cc(S(=O)(=O)N2C[C@H](CCC(=O)O)Oc3ccc(-c4cccc(Cl)c4)cc32)ccc1F [Compound 5, (S)-3-(6-(3-chlorophenyl)-4-((4-fluoro-3-methoxyphenyl)sulfonyl)-3,4-dihydro-2H-benzo[b][1,4]oxazin-2-yl)propanoic acid]	500 to 5000	< 500		*** (The symbol “***” indicates a value in the range of greater than 150 to 200)	** (The symbol “**” indicates a value in the range of greater than 90 to 150)	
CC(C)(C[C@H]1CN(S(=O)(=O)c2cccc(C(F)(F)F)c2)c2cc(-c3cc(F)cc(F)c3)ccc2O1)C(=O)O [Compound 32N, (S)-3-(6-(3,5-difluorophenyl)-4-((3-(trifluoromethyl)phenyl)-sulfonyl)-3,4-dihydro-2H-benzo[b][1,4]oxazin-2-yl)-2,2-dimethylpropanoic acid]	< 500	< 500		*** (The symbol “***” indicates a value in the range of greater than 150 to 200)	** (The symbol “**” indicates a value in the range of greater than 90 to 150)	
CC(C)(F)C(=O)NC[C@H]1CN(S(=O)(=O)c2cccc(C(F)(F)F)c2)c2cc(-c3cccc(F)c3Cl)ccc2O1 [Compound 30BZ, (S)-N-((6-(2-chloro-3-fluoro-phenyl)-4-((3-(trifluoromethyl)-phenyl)sulfonyl)-3,4-dihydro-2H-benzo[b][1,4]oxazin-2-yl)methyl)-2-fluoro-2-methylpropanamide]		< 500	< 500	**** (The symbol “****” indicates a value greater than 200)		* (The symbol “*” indicates a value in the range of 25 to 90)
CC(C)(F)C(=O)NC[C@H]1CN(S(=O)(=O)c2cccc(C(F)(F)F)c2)c2cc(-c3cc(F)ccc3F)ccc2O1 [Compound 30BE, (S)-N-((6-(2,5-difluorophenyl)-4-((3-(trifluoromethyl)phenyl)-sulfonyl)-3,4-dihydro-2H-benzo[b][1,4]oxazin-2-yl)methyl)-2-fluoro-2-methylpropanamide]	< 500	< 500		*** (The symbol “***” indicates a value in the range of greater than 150 to 200)	* (The symbol “*” indicates a value in the range of 25 to 90)	

Further lines, with some results ahead:

EC50 (Gal4-RORγ-LBD; [1]) [nM]	EC50 (RORγ-LBD) [nM]	EC50 (Gal4-RORγ-LBD; 2 μM ursolic acid) [nM]	Compound	TR-FRET Assay Max Response (RORγ-LBD)	Gal4-RORγ Assay Max Response (Gal4-RORγ-LBD; [1])	Gal4-RORγ Assay Max Response (Gal4-RORγ-LBD; 2 μM ursolic acid)
< 500	< 500		COc1cc(S(=O)(=O)N2C[C@H](CNC(=O)[C@@](C)(O)C(F)(F)F)Oc3ccc(-c4cc(F)ccc4F)cc32)ccc1F [Compound 30X, (R)-N-(((S)-6-(2,5-difluorophenyl)-4-((4-fluoro-3-methoxyphenyl)sulfonyl)-3,4-dihydro-2H-benzo[b][1,4]oxazin-2-yl)methyl)-3,3,3-trifluoro-2-hydroxy-2-methylpropanamide]	*** (The symbol “***” indicates a value in the range of greater than 150 to 200)	* (The symbol “*” indicates a value in the range of 25 to 90)	
	< 500	< 500	Cc1cc(C)cc(-c2ccc3c(c2)N(S(=O)(=O)c2cccc(C(F)(F)F)c2)C[C@H](CC(C)(C)C(=O)O)O3)c1 [Compound 32AS, (S)-3-(6-(3,5-dimethylphenyl)-4-((3-(trifluoromethyl)phenyl)-sulfonyl)-3,4-dihydro-2H-benzo[b][1,4]oxazin-2-yl)-2,2-dimethylpropanoic acid]	** (The symbol “**” indicates a value in the range of greater than 90 to 150)		** (The symbol “**” indicates a value in the range of greater than 90 to 150)
	< 500	< 500	Cn1cc(C(=O)NC[C@H]2CN(S(=O)(=O)c3cccc(C(F)(F)F)c3)c3cc(-c4cccc(F)c4Cl)ccc3O2)cn1 [Compound 30CD, (S)-N-((6-(2-chloro-3-fluoro-phenyl)-4-((3-(trifluoromethyl)-phenyl)sulfonyl)-3,4-dihydro-2H-benzo[b][1,4]oxazin-2-yl)methyl)-1-methyl-1H-pyrazole-4-carboxamide]	*** (The symbol “***” indicates a value in the range of greater than 150 to 200)		** (The symbol “**” indicates a value in the range of greater than 90 to 150)
< 500	< 500		COc1cccc(-c2cc3c(cc2Cl)O[C@@H](CCC(=O)O)CN3S(=O)(=O)c2cccc(C(F)(F)F)c2)c1 [Compound 22C, (S)-3-(7-chloro-6-(3-methoxyphenyl)-4-((3-(trifluoromethyl)phenyl)sulfonyl)-3,4-dihydro-2H-benzo[b][1,4]-oxazin-2-yl)propanoic acid]	**** (The symbol “****” indicates a value greater than 200)	** (The symbol “**” indicates a value in the range of greater than 90 to 150)	
< 500	< 500		O=S(=O)(c1cccc(C(F)(F)F)c1)N1C[C@H]([C@H](O)CO)Oc2ccc(-c3cc(F)ccc3F)cc21 [Compound 41, (R)-1-((R)-6-(2,5-difluorophenyl)-4-((3-(trifluoromethyl)phenyl)sulfonyl)-3,4-dihydro-2H-benzo[b][1,4]oxazin-2-yl)ethane-1,2-diol]	**** (The symbol “****” indicates a value greater than 200)	* (The symbol “*” indicates a value in the range of 25 to 90)	
